Reference: patent publication US20220323427A1, “SOMATOSTATIN RECEPTOR TYPE 5 AGONIST FOR THE TREATMENT OF HYPERINSULINISM” (Crinetics Pharmaceuticals, Inc., priority 2021, published 2022)

Legend:
human pancreatic islets [1] = experiment: Insulin secretion in perifused human islets; type: cell-based; settings: for Effect on glucose- and tolbutamide-stimulated insulin secretion: G16.7 and G16.7+Tolb
Protocol: The activity of Compound 1 on insulin and glucagon secretion in human pancreatic islets from three healthy adult donors (Prodo Labs, Aliso Viejo, Calif.) was evaluated using a perifusion system that enables dynamic insulin and glucagon measurements from the same islet preparation in response to different stimuli. Specifically, the effects on glucose-stimulated and sulfonylurea (tolbutamide)-stimulated insulin secretion and arginine-stimulated glucagon secretion were investigated and compared to those of a maximally effective concentration of diazoxide. Islets were collected in culture media (Prodo Labs #PIM-S001GMP) supplemented with 5% human AB serum (Prodo Labs #PIM-ABS001GMP), 1% glutamine-glutathione (Prodo Labs #PIM-G001GMP) and an antibiotic cocktail of amphotericin B, ciproflaxin and gentamicin (Prodo Labs #PIM-3X001GMP) and plated at a density of 1500-3000 islet equivalents (IEQ) in 10-cm nontreated tissue culture dishes (Thomas Scientific #1182M59). Islets were cultured at 37° C., 5% CO2 and 95% humidity for 20 h. Dynamic insulin secretion assays were performed using a perifusion system, Peri5 (Biorep Technologies, FL. Glucose (Boston BioProducts #BM-675) at 3 mM (G3) or 16.7 mM (G16.7), or glucose at 16.7 mM plus 100 μM tolbutamide (Sigma #T0891; G16.7+Tolb) were prepared in perifusion buffer, PB=[24 mM NaHCO3 (Fisher Scientific #S233-500), 120 mM NaCl (Spectrum Chemical #S0155), 4.8 mM KCl (Fisher Scientific #P217-500), 2.5 mM CaCl2 (Fisher Scientific #C614-500), 1.2 mM MgCl2 (Sigma #M8266), 10 mM HEPES (Gibco #15630-080) and 0.1% BSA (EMD Millipore #12675-100GM)]. Various concentrations of Compound 1 and diazoxide (Sigma #D9035) were prepared in G16.7 or in G16.7+Tolb. […] Insulin concentration was quantified using the commercially-available Mercodia Insulin ELISA (Mercodia #10-1113-10) kit. […] The optical density of each well was determined at 450 nm in a Tecan M1000Pro (Tecan, Switzerland) multiplate reader. Insulin concentrations were calculated by regression to the standard curve using GraphPad Prism (GraphPad, San Diego, Calif.).

human pancreatic islets [2] = experiment: Glucagon secretion in perifused human islets; type: cell-based; settings: islets from a healthy donor; G3+Arg
Protocol: For glucagon secretion, glucose (Boston BioProducts #BM-675) solutions, G3, G16.7 and G3 plus 20 mM arginine (Sigma #A8094; G3+Arg) were prepared in PB [24 mM NaHCO3 (Fisher Scientific #S233-500), 120 mM NaCl (Spectrum Chemical #S0155), 4.8 mM KCl (Fisher Scientific #P217-500), 2.5 mM CaCl2 (Fisher Scientific #C614-500), 1.2 mM MgCl2 (Sigma #M8266), 10 mM HEPES (Gibco #15630-080) and 0.1% BSA (EMD Millipore #12-675-100GM)]. Various concentrations of Compound 1 and diazoxide (Sigma #D9035) were prepared in G16.7 or in G3+Arg. On the day of the assay, ten perifusion chambers (Biorep #Peri-chamber) were loaded with a bead suspension (Biorep #Peri-beads-20) followed by 300 IEQ and another layer of bead suspension. Chambers were filled with PB, placed in the perifusion equipment and equilibrated with G3 for 74 min (flow rate=230 μL/min) followed by the perifusion steps for glucagon secretion shown in Table 3. […] Glucagon concentration was quantified using the commercially-available Mercodia Glucagon ELISA (Mercodia #10-1271-01) kit. undiluted perfusate samples were added to the supplied pre-coated assay plates. […] The optical density of each well was determined at 450 nm in a Tecan M1000Pro (Tecan, Switzerland) multiplate reader. Glucagon concentrations were calculated by regression to the standard curve using GraphPad Prism (GraphPad, San Diego, Calif.).

[3] = system: glyburide-induced hyperinsulinemic hypoglycemia; experiment: Glyburide-induced hyperinsulinemic hypoglycemia model in rats; type: in vivo, Sprague Dawley rats; settings: for Blood glucose levels reached over 5 hours: male rats, 2 h after glyburide, vehicle 94 mg/dL
Protocol: Sulfonylurea drugs, such as glyburide, inhibit KATP channels and can be used in rat preclinical models to mimic the disease state of congenital HI patients with KATP channel mutations.
This model of glyburide-induced hyperinsulinemic hypoglycemia was used to assess the pharmacodynamic effects of Compound 1 after a single administration in male and female adult rats and male neonatal rats.
Glyburide was administered to raise insulin levels and induce hypoglycemia in adult male Sprague Dawley rats.
Two hours following glyburide administration, Compound 1 was given by oral gavage and blood glucose was monitored over 5 hours.

[4] = MAD study pharmacokinetics; type: in vivo, human
Protocol: MAD/Part 2: multiple ascending dose, randomized, placebo-controlled, double-blind; up to 5 cohorts, n=9/cohort; subjects in MAD will receive Compound 1 or the placebo. Subjects will undergo a mixed meal tolerance test (MMTT) and an SU challenge and euglycemic clamp procedure. The doses will not exceed the doses in the SAD. Doses will escalate from 30 mg to 120 mg.

[5] = Fasting glucose, insulin and C-peptide, MAD; type: in vivo, human; settings: 30-120 mg QD for 10 days
Source text: Patients with congenital HI have fasting hypoglycemia due to excess endogenous insulin secretion. Metabolic biomarkers including glucose, insulin, C-peptide, and βhydroxybutyrate will be collected throughout both the SAD and MAD to assess the effect of single and multiple doses of Compound 1.

Time to steady state trough levels ([4]; QD dosing): ~8 days | Mean accumulation at steady state for AUC ([4]; QD dosing 30-120 mg): 2-2.5 × | Mean accumulation at steady state for Cmaz ([4]; QD dosing 30-120 mg): 1.6-1.8 ×
Structure (SMILES): C[C@H](NC(=O)c1cnc(C#N)c(-c2cc(F)cc(F)c2)c1N1CC[C@H](N)C1)C(F)(F)F [Compound 1, 4-[(3S)-3-aminopyrrolidin-1-yl]-6-cyano-5-(3,5-difluorophenyl)-N-[(2S)-1,1,1-trifluoropropan-2-yl]pyridine-3-carboxamide]
Effect on glucose- and tolbutamide-stimulated insulin secretion (human pancreatic islets [1]; 0.1 μM): intermediate effect | Effect on glucose- and tolbutamide-stimulated insulin secretion (human pancreatic islets [1]; 1 μM, both phases): strongest inhibitory effect | Insulin secretion in response to 16.7 mM glucose and tolbutamide (human pancreatic islets [1]; concentration dependent, islets from three healthy adult donors): inhibited insulin secretion | Inhibition of arginine-stimulated glucagon secretion (human pancreatic islets [2]): up to 24% | Blood glucose levels reached over 5 hours ([3]; 3 mg/kg oral): up to 111 mg/dL | Blood glucose levels reached over 5 hours ([3]; 10 mg/kg oral): ≤ 134 mg/dL | Blood glucose levels reached over 5 hours ([3]; 30 mg/kg oral): ≤ 203 mg/dL | Blood glucose levels compared to vehicle ([3]; oral, 3-30 mg/kg): dose-dependently increased blood glucose levels | Minimum effective dose (significant increase in blood glucose AUC over 5 hours) ([3]; oral, single dose): 10 mg/kg | Dose proportionality of exposures ([4]; between 30 and 120 mg doses): Modestly greater than proportional increases in exposures | Fasting insulin and C-peptide levels [5]: suppressed | Fasting plasma glucose [5]: dose-dependent increase in fasting plasma glucose
